Source: patent publication US20260035364A1, “BICYCLIC TETRAHYDROTHIAZEPINE DERIVATIVES” (Hoffmann-La Roche Inc., priority 2022, published 2026)

Columns and labels:
DGKalpha = DGKalpha (Homo sapiens, UniProt P23743); assay: In vitro DGK inhibition assay (ADP-Glo, liposomes), DGKalpha; format: biochemical; parameters: hDGKalpha(1-735)-N-His; His (N); made in house; host or cells: Sf21 insect cells (baculovirus); conditions: 4 nM DGK α, 25 μM ATP, 125 uM DLG in liposomes, 1 hour reaction
In short: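 Full-length human DGKα (4 nM) or DGKζ (2 nM) from Sf21 cells, with DLG substrate at 125 uM in PS/PC liposomes and ATP at 25 μM (α) or 50 μM (ζ); 1 h reaction. ADP formed read by ADP-Glo luminescence; compounds 11-point, 1:3 dilutions from 10 mM, 2% DMSO final.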

primary human T-cells = assay: T-cell proliferation assay (CellTiter-Glo); format: cell-based; conditions: Homo sapiens, T-cell, 120 h, CD3 condition; for Emax: 5 days, 20 μM reference compound A1 = 100%, read-out: Emax proliferation (% activation); for EC50: proliferation after 5 days, CellTiter-Glo, read-out: Tcell Proliferation CD3 EC50
In short: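 Expanded primary human T-cells (100k/well) on plates coated with CD3 antibody or PBS only, given a 5- or 6-point dose response (top 20 or 10 μM final, 3.333-fold steps, 0.2% DMSO). ATP measured by CellTiter-Glo 2.0 luminescence after 5 days. Normalized to DMSO and 20 μM reference A1 (100%); EC50 and Emax reported for CD3 conditions.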

DGKzeta = DGKzeta (Homo sapiens, UniProt Q13574); assay: In vitro DGK inhibition assay (ADP-Glo, liposomes), DGKzeta; format: biochemical; parameters: hDGKzeta(1-928)-N-His; His (N); made in house; host or cells: Sf21 insect cells (baculovirus); conditions: 2 nM DGK ζ, 50 μM ATP, 125 uM DLG in liposomes, 1 hour reaction
Chain of DGKzeta (Q13574 whole entry): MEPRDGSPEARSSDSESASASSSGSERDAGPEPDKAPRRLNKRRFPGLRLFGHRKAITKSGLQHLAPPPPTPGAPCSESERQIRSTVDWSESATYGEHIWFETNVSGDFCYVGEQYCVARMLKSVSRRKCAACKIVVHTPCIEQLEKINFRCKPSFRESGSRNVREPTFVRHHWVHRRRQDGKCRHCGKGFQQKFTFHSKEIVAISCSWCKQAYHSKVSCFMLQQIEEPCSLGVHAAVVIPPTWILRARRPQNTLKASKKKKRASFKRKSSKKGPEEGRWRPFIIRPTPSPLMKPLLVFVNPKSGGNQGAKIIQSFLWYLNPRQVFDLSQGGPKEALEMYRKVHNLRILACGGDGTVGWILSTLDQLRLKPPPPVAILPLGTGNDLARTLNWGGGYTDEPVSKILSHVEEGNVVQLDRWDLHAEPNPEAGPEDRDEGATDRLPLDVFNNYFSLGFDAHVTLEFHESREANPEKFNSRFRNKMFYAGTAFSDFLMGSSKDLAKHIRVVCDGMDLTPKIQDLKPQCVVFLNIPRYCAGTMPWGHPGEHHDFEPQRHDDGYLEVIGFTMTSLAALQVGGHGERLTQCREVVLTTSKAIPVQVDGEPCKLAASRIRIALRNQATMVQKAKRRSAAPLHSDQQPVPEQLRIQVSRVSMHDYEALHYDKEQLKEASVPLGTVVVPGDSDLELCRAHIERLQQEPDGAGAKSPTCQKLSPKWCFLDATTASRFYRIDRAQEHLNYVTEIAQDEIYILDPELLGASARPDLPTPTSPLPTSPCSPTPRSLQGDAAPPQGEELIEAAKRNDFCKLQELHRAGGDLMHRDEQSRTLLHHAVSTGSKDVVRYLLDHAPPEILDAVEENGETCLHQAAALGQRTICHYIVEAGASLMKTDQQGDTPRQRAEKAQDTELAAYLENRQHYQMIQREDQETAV
In short: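 DGKζ (2 nM) phosphorylated DLG presented in DLG/PS/PC liposomes (final DLG 125 μM) with 50 μM ATP for 1 hour. ADP formed was read by ADP-Glo luminescence. Compounds were tested as 11-point 1:3 dose responses in 2% final DMSO.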

Chain of DGKalpha (P23743 whole entry): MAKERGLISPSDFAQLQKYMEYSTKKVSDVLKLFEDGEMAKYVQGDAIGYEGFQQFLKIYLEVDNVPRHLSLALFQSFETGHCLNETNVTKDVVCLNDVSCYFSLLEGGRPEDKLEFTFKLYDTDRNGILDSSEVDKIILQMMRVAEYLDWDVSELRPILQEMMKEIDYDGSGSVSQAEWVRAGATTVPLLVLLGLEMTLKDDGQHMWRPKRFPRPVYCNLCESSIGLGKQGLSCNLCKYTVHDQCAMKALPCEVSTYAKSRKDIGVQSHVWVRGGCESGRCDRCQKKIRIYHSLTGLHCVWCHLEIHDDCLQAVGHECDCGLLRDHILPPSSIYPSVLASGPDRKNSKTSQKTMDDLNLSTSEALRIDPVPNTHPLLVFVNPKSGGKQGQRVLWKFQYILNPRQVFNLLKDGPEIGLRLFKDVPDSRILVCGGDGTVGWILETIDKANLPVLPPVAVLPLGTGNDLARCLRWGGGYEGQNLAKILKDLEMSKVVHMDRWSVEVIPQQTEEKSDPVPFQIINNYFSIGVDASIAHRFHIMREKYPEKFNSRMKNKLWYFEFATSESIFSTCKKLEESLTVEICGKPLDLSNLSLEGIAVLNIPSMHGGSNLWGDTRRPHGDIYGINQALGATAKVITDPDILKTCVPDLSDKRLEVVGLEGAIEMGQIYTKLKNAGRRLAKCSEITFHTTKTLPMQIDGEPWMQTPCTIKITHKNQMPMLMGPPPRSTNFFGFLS

SMILES	IC50 (DGKalpha)	Emax (primary human T-cells)	EC50 (primary human T-cells)	IC50 (DGKzeta)
CC(C)(c1nc(-c2cc3c(cc2F)S(=O)(=O)C[C@H](N)C(=O)N3Cc2ccc(-c3noc(C(F)(F)F)n3)cc2)no1)S(C)(=O)=O [Example 46, (3R)-3-amino-8-fluoro-7-[5-(1-methyl-1-methylsulfonyl-ethyl)-1,2,4-oxadiazol-3-yl]-1,1-dioxo-5-[[4-[5-(trifluoromethyl)-1,2,4-oxadiazol-3-yl]phenyl]methyl]-2,3-dihydro-1λ6,5-benzothiazepin-4-one]	1100 nM	185%	135 nM	256 nM
CC(C)(c1nnc(-c2ccc3c(c2)N(Cc2ccc(Oc4cccc(OC(F)F)c4)cc2)C(=O)[C@@H](N)CS3(=O)=O)o1)S(C)(=O)=O [Example 47, (3R)-3-amino-5-[[4-[3-(difluoromethoxy)phenoxy]phenyl]methyl]-7-[5-(1-methyl-1-methylsulfonyl-ethyl)-1,3,4-oxadiazol-2-yl]-1,1-dioxo-2,3-dihydro-1λ6,5-benzothiazepin-4-one]	1100 nM	156%	351 nM	468 nM
CS(=O)(=O)Cn1nnnc1-c1cc2c(cc1F)S(=O)(=O)C[C@H](N)C(=O)N2Cc1ccc(Oc2ccccc2)cc1 [Example 55, (3R)-3-amino-8-fluoro-7-[1-(methylsulfonyl-methyl)tetrazol-5-yl]-1,1-dioxo-5-[(4-phenoxyphenyl)methyl]-2,3-dihydro-1λ6,5-benzothiazepin-4-one]	18300 nM	310%	1150 nM	6640 nM
CC(C)(c1nnc(-c2cc3c(cc2F)S(=O)(=O)C[C@H](N)C(=O)N3Cc2ccc(OCC(F)(F)F)cc2)o1)S(C)(=O)=O [Example 24, (3R)-3-amino-8-fluoro-7-[5-(1-methyl-1-methylsulfonyl-ethyl)-1,3,4-oxadiazol-2-yl]-1,1-dioxo-5-[[4-(2,2,2-trifluoroethoxy)phenyl]methyl]-2,3-dihydro-1λ6,5-benzothiazepin-4-one]	431 nM	104%	475 nM	503 nM
